Values after ≈ are worked out from the molar mass of the structure shown. Numbered stars: 1 amine (or outer) side, 2 acyl side, 3 side chain; on linkers, the order of the positions; unused ones are H or OH. Bridge positions count the residues as written; N and C are the ends. Square brackets hold non-standard residues; d marks the D form. Peptide text beside a SMILES is read from it. * marks the point of attachment. ξ: configuration not given here. NMeTrp(4-OMe) = CN[CH](Cc1c[nH]c2cccc(OC)c12)C(=O)O; X1 = O=C(C(N[*:1])C(O)c1ccccc1)[*:2]; NMeI = CC[CH](C)[CH](NC)C(=O)O; ξNMe2Val = CC(C)C(C(=O)*)N(C)C; NMeT = CN[CH](C(=O)O)[CH](C)O; NMeL = CN[CH](CC(C)C)C(=O)O; NMeV = CN[CH](C(=O)O)C(C)C
Legend:
[1] = tested on: M. smegmatis (ATCC 700084); assay: microbe, parasite or virus in culture; type: cell-based; details: Mycolicibacterium smegmatis, ATCC700084; M. smegmatis; read-out: MIC
[2] = tested on: M. tuberculosis; assay: microbe, parasite or virus in culture; type: cell-based, Mycobacterium tuberculosis; details: Mycobacterium tuberculosis, read-out: MBC (minimum bactericidal concentration)
[3] = tested on: M. marinum (ATCC 927); assay: microbe, parasite or virus in culture; type: cell-based; details: Mycobacterium marinum, ATCC927; M. marinum; read-out: MIC
[4] = tested on: Escherichia coli (ATCC 25922); assay: MIC against nonmycobacteria (OD570); type: cell-based; details: ATCC25922, E. coli
Description: (§1) Standard compounds used were ampicillin (AMP) and gentamicin (GEN). […] Amphotericin B (AmphB) and ketoconazole (KETO) were used as standard compounds.

[5] = tested on: Staphylococcus aureus (ATCC 29213); assay: MIC against nonmycobacteria (OD570); type: cell-based; details: ATCC29213, S. aureus
Description: as §1

[6] = tested on: Candida albicans (ATCC 10231); assay: MIC against nonmycobacteria (OD570); type: cell-based; details: ATCC10231, C. albicans
Description: as §1

[7] = tested on: M. kansasii (ATCC 12478); assay: microbe, parasite or virus in culture; type: cell-based; details: Mycobacterium kansasii, ATCC12478; M. kansasii; read-out: MIC
[8] = tested on: M. chelonae (ATCC 35752); assay: microbe, parasite or virus in culture; type: cell-based, Mycobacterium chelonae; details: Mycobacteroides chelonae, ATCC35752; M. chelonae; read-out: MIC
[9] = tested on: M. bovis (ATCC 35734); assay: microbe, parasite or virus in culture; type: cell-based; details: Mycobacterium tuberculosis variant bovis, ATCC35734
[10] = target: ClpC1/P1/P2 complex (Mycobacterium tuberculosis, UniProt P9WPC9); type: biochemical, M. tuberculosis
ClpC1/P1/P2 complex, sequence (P9WPC9 whole entry, one chain of several): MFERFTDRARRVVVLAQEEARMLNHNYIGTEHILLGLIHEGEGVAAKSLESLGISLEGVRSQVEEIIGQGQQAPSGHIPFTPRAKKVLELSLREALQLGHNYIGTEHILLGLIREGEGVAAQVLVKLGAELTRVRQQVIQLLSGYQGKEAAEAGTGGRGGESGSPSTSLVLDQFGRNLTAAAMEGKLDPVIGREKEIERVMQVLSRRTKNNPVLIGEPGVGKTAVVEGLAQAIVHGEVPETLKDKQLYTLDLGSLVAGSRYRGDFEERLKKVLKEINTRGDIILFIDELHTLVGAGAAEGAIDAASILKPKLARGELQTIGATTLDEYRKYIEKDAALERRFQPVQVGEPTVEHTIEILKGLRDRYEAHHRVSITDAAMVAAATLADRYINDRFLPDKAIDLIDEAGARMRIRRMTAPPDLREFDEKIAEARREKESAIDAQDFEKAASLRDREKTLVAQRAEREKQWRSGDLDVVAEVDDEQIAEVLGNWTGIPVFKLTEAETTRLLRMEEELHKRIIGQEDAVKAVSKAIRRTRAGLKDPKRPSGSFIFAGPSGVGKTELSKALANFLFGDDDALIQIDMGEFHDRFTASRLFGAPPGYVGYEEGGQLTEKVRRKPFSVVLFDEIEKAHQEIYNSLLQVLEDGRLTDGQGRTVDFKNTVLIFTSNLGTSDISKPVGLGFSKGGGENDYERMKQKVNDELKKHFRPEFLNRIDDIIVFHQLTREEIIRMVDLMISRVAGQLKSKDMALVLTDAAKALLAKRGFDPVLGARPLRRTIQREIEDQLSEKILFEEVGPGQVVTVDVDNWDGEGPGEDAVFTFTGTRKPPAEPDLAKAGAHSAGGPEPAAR

[11] = tested on: nonreplicating cultures of M. tuberculosis; assay: microbe, parasite or virus in culture; type: cell-based, Mycobacterium tuberculosis; details: Mycobacterium tuberculosis
[12] = tested on: M. avium (ATCC 15769); assay: microbe, parasite or virus in culture; type: cell-based; details: Mycobacterium avium, ATCC15769; M. avium; read-out: MIC
[13] = tested on: M. tuberculosis strain H37Rv (ATCC 27294); assay: microbe, parasite or virus in culture; type: cell-based, Mycobacterium tuberculosis; details: Mycobacterium tuberculosis
[14] = target: ClpC1 (Mycobacterium tuberculosis, UniProt P9WPC9); type: biochemical, M. tuberculosis
ClpC1, sequence (P9WPC9 whole entry): as the sequence (P9WPC9 whole entry, one chain of several) above

[15] = tested on: M. tuberculosis 5 global clade representatives; assay: microbe, parasite or virus in culture; type: cell-based; details: Mycobacterium tuberculosis, read-out: MICs
[16] = tested on: M. abscessus (ATCC 19977); assay: microbe, parasite or virus in culture; type: cell-based, Mycobacterium abscessus; details: Mycobacteroides abscessus, ATCC19977, M. abscessus; read-out: MIC
[17] = ECU, micelle formulation; cited from earlier work

**Q.** What does the source list for `CCC(C)C(C(=O)NC1C(=O)N(C)C(C(C)O)C(=O)NC(C(C)C)C(=O)N(C)C(CC(C)C)C(=O)NC(C(C)C)C(=O)N(C)C(C(C)C)C(=O)N(C)C(Cc2c[nH]c3cccc(OC)c23)C(=O)NC(C(C)C)C(=O)NC(C(O)c2ccccc2)C(=O)NC(C(C)C)C(=O)OC1C)N(C)C(=O)C(NC(=O)C(C(C)C)N(C)C)C(C)C` (centres unmarked) [ECU, ecumicin] (ξNMe2Val-V[NMeI]T[NMeT]V[NMeL]V[NMeV][NMeTrp(4-OMe)]V[X1]V; ester 3-C; configuration not given here)?
**A.** MIC [1]: 1.7 µM (≈ 2.72 µg/mL); MBC [2]: 0.34 µM (≈ 0.544 µg/mL); MIC [3]: 0.95 µM (≈ 1.52 µg/mL); MIC [4]: > 32 µM; MIC [5]: > 32 µM; MIC [6]: > 32 µM; MIC [7]: 4 µM (≈ 6.4 µg/mL); MIC [8]: 0.97 µM (≈ 1.55 µg/mL); MIC [9]: < 0.2 µM; effect on proteolytic activity of ClpC1/P1/P2 (FITC-casein degradation) [10]: inhibits ClpC1 proteolysis; MBC [11]: 1.5 µM (≈ 2.4 µg/mL); MIC [12]: 0.35 µM (≈ 0.56 µg/mL); MIC [13]: 0.16 µM (≈ 0.256 µg/mL); effect on ClpC1 ATPase activity [14]: stimulates the ATPase activity; MIC [15]: 0.13 to 0.38 µM (≈ 0.208 to 0.608 µg/mL); MIC [16]: > 63 µM; terminal half-life [17]: 3 h

— publication PMC6395927, “Rufomycin Targets ClpC1 Proteolysis in Mycobacterium tuberculosis and M. abscessus” (Antimicrobial Agents and Chemotherapy, 2019)
